Laboratory results reported in US10093660B2, “Sulfoximine substituted quinazolines for pharmaceutical compositions” (EVOTEC INTERNATIONAL GMBH, priority 2013, dated 2018).

Columns and labels:
MNK1a = MNK1a (Homo sapiens (Human), UniProt Q9BUB5); experiment: MNK1 in vitro kinase assay (Assay 3), Z'-LYTE; assay type: biochemical; conditions: for inhibition at 1 µM: read-out: MNK1 % INH
Description: C. MNK1 In Vitro Kinase Assay (Assay 3)
MNK1 Data can be obtained from the MNK1 Z′-LYTE® assay. The MNK1 Z′-LYTE® screening protocol and assay conditions are also described on www.invitrogen.com.
The assay is described as follows:
The Z′-LYTE® biochemical assay employs a fluorescence-based, coupled-enzyme format and is based on the differential sensitivity of phosphorylated and non-phosphorylated peptides to proteolytic cleavage. The peptide substrate is labeled with two fluorophores—one at each end—that make up a FRET pair.
In the primary reaction, the kinase transfers the gamma-phosphate of ATP to a single tyrosine, serine or threonine residue in a synthetic FRET-peptide. In the secondary reaction, a site-specific protease recognizes and cleaves non-phosphorylated FRET-peptides. Phosphorylation of FRET-peptides suppresses cleavage by the Development Reagent. Cleavage disrupts FRET between the donor (i.e., coumarin) and acceptor (i.e., fluorescein) fluorophores on the FRET-peptide, whereas uncleaved, phosphorylated FRET-peptides maintain FRET. A ratiometric method, which calculates the ratio (the Emission Ratio) of donor emission to acceptor emission after excitation of the donor fluorophore at 400 nm, is used to quantitate reaction progress, as shown in the equation below.
The 2×MKNK1 (MNK1) mixture is prepared in 50 mM HEPES pH 7.5, 0.01% BRIJ-35, 10 mM MgCl2, 4 mM MnCl2, 1 mM EGTA, 2 mM DTT.
The Test Compounds are screened in 1% DMSO (final) in the well.
All Peptide/Kinase Mixtures are diluted to a 2× working concentration in the MNK1 Kinase Buffer.
All ATP Solutions are diluted to a 4× working concentration in Kinase Buffer (50 mM HEPES pH 7.5, 0.01% BRIJ-35, 10 mM MgCl2, 1 mM EGTA).
Development Reagent Solution:
The Development Reagent is diluted in Development Buffer
1. 2.5 μL—4× Test Compound
2. 5 μL—2× Peptide/Kinase Mixture
5. 60-minute Kinase Reaction incubation at room temperature
6. 5 μL—Development Reagent Solution
8. 60-minute Development Reaction incubation at room temperature
9. Read on fluorescence plate reader and analyze the data
Control C0%=Average Coumarin emission signal of the 0% Phos. Control F100%=Average Fluorescein emission signal of the 100% Phos. Control F0%=Average Fluorescein emission signal of the 0% Phos. Control Graphing Software
SelectScreen® Kinase Profiling Service uses XLfit from IDBS. […] The activity of MNK proteins can be assayed also by other in vitro kinase assay formats. […] In general, MNK kinase assays can be performed such that a MNK substrate such as a protein or a peptide, which may or may not include modifications as further described below, or others are phosphorylated by MNK proteins having enzymatic activity in vitro. The activity of a candidate agent can then be determined via its ability to decrease the enzymatic activity of the MNK protein. The kinase activity may be detected by change of the chemical, physical or immunological properties of the substrate due to phosphorylation.

MNK2a = MNK2a (Homo sapiens (Human), UniProt Q9HBH9); experiment: MNK2a in vitro kinase assay (Assay 2), ADP-Glo; assay type: biochemical; conditions: assay 2; read-out: MNK2 IC50
Description: B. MNK2a In Vitro Kinase Assay (Assay 2)

MNK2a, sequence (Q9HBH9 whole entry): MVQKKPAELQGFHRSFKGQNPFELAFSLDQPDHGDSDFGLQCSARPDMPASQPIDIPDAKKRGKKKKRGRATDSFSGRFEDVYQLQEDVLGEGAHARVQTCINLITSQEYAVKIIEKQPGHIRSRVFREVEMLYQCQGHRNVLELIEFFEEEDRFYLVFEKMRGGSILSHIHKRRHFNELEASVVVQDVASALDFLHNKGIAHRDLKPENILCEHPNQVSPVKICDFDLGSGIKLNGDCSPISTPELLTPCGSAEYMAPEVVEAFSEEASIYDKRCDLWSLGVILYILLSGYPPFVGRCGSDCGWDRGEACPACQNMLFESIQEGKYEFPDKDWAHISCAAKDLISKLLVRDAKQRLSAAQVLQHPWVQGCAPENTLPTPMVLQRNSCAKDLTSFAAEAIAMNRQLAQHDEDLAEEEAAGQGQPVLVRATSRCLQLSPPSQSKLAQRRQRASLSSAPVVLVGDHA
MNK1a, sequence (Q9BUB5 other isoform, or with tags, fused parts or gaps): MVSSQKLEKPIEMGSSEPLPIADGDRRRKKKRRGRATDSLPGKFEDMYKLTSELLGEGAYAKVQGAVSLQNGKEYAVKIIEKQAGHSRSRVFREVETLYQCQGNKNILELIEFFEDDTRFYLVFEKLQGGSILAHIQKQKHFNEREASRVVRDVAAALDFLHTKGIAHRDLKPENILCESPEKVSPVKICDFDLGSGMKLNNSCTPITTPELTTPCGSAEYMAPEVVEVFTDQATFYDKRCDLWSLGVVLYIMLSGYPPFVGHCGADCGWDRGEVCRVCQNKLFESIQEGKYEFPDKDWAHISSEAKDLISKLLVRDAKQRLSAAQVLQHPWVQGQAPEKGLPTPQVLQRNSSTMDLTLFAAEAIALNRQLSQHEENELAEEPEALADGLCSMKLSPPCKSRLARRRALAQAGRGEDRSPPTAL

Compound | inhibition at 1 µM (MNK1a; compound concentration of 1 μM) | IC50 (MNK2a) | IC50 (MNK1a) | MNK1 % INH (MNK1a; compound concentration of 1 μM)
CS(C)(=O)=Nc1cc(Cl)c2c(Nc3ccc(F)cc3O[C@H]3COC[C@H]3O)ncnc2c1 (racemic) [Example 1.3] | 95% | 3 nM |  | 
CO[C@@H]1COC[C@@H]1Oc1cc(F)ccc1Nc1ncnc2cc(N=S(C)(C)=O)cc(Cl)c12 (racemic) [Example 1.4] | 97% | 2 nM |  | 
O=S1(=Nc2cc(Cl)c3c(Nc4ccc(F)cc4O[C@H]4COC[C@H]4O)ncnc3c2)CCCC1 (racemic) [Example 1.5] | 88% | 2 nM |  | 
Cc1cc(N=S(C)(C)=O)cc2ncnc(Nc3cccnc3O[C@@H]3COC[C@@H]3O)c12 (racemic) [Example 2.4] | 93% | 17 nM |  | 
Cc1cc(N=S2(=O)CCCC2)cc2ncnc(Nc3ccc(F)cc3O[C@H]3COC[C@H]3O)c12 (racemic) [Example 2.8] | 100% | 2 nM |  | 
CO[C@@H]1COC[C@@H]1Oc1cc(F)ccc1Nc1ncnc2cc(N=S3(=O)CCCC3)cc(C)c12 (racemic) [Example 2.10] | 105% | 2 nM |  | 
Cc1cc(N=S2(=O)CCCC2)cc2ncnc(Nc3cccnc3O[C@H]3COC[C@H]3OCCF)c12 (racemic) [Example 2.25] |  | 2 nM | 46 nM | 
CO[C@H]1COC[C@@H]1Oc1ncccc1Nc1ncnc2cc(N=S3(=O)CCCC3)cc(C)c12 (racemic) [Example 2.39] | 86% | 7 nM |  | 
CS(C)(=O)=Nc1cc(F)c2c(Nc3ccc(F)cc3O[C@H]3COC[C@H]3O)ncnc2c1 (racemic) [Example 2.52] | 97% | 15 nM |  | 
Cc1cc(N=S2(=O)CCC2)cc2ncnc(Nc3ccc(F)cc3O[C@H]3COC[C@@H]3O)c12 [Example 2.36] |  |  | 51 nM | 
Cc1cc(N=S(C)(C)=O)cc2ncnc(Nc3ccc(F)cc3O[C@H]3COC[C@@H]3O)c12 [Example 2.45] |  |  | 92 nM | 92%
Cc1cc(N=S2(=O)CCC2)cc2ncnc(Nc3ccc(F)cc3O[C@@H]3COC[C@H]3O)c12 [Example 2.47] | 103% |  |  | 
Cc1cc(N=S2(=O)CCC2)cc2ncnc(Nc3cccnc3O[C@@H]3COC[C@H]3O)c12 [Example 2.49] | 94% |  |  | 
O=S1(=Nc2cc(F)c3c(Nc4ccc(F)cc4O[C@H]4COC[C@@H]4O)ncnc3c2)CCCC1 [Example 2.66] | 100% |  |  | 
Cc1cc(N=S(C)(=O)C2CC2)cc2ncnc(Nc3ccc(F)cc3O[C@H]3COC[C@@H]3O)c12 (stereo partly shown) [Example 2.77] | 94% |  |  | 

Other lines, results leading:

inhibition at 1 µM (MNK1a; compound concentration of 1 μM) | IC50 (MNK2a) | IC50 (MNK1a) | MNK1 % INH (MNK1a; compound concentration of 1 μM) | Compound
86% | 27 nM |  |  | COc1cc(N=S(C)(=O)c2cccnc2)cc2ncnc(Nc3ccc(F)cc3O[C@H]3COC[C@H]3O)c12 (mixture of isomers) [Example 9.12]
82% | 32 nM |  |  | COc1cc(N=S(C)(=O)C2CCOCC2)cc2ncnc(Nc3ccc(F)cc3O[C@H]3COC[C@H]3O)c12 (mixture of isomers) [Example 9.15]
92% | 33 nM |  |  | COc1cc(N=S(C)(=O)C2CC2)cc2ncnc(Nc3ccc(F)cc3O[C@H]3COC[C@H]3O)c12 (mixture of isomers) [Example 9.17]
 | 42 nM | 329 nM |  | COc1cc(N=S(C)(=O)C(C)(C)C)cc2ncnc(Nc3ccc(F)cc3O[C@H]3COC[C@H]3O)c12 (mixture of isomers) [Example 9.19]
87% | 23 nM |  |  | COc1cc(N=S(C)(=O)C(C)C)cc2ncnc(Nc3ccc(F)cc3O[C@H]3COC[C@H]3O)c12 (mixture of isomers) [Example 9.20]
84% | 23 nM |  |  | COc1cc(N=S(C)(=O)c2ccccc2)cc2ncnc(Nc3ccc(F)cc3O[C@H]3COC[C@H]3O)c12 (mixture of isomers) [Example 9.21]
93% | 8 nM |  |  | COc1cc(N=S2(=O)CCC(C)C2)cc2ncnc(Nc3ccc(F)cc3O[C@H]3COC[C@H]3O)c12 (mixture of isomers) [Example 9.23]
98% |  |  |  | Cc1cc(N=S2(=O)CCCC2)cc2ncnc(Nc3ccc(F)cc3O[C@H]3CNC[C@@H]3O)c12 [Example 3.6]
